Results: patent US20190201494A1, “COMPOSITIONS AND METHODS FOR TREATING NICOTINE WITHDRAWAL” (STC UNM, priority 2016, published 2019)
“Also recorded” adds a separate entry of the source.

Test system: smokers, 36 hours of smoking abstinence
Assay: Replication crossover study: Questionnaire on Smoking Urges-Brief on Day 2 of 36 hours smoking abstinence (Example 2)
Type: in vivo, human
From the text: Results from Day 2 are presented. The main differences between Example 1 and Example 2 are: (1) parallel vs crossover design, and (2) placebo content: the parallel design placebo was normal saline, the crossover design was 8.7% NaCl. The purpose of increasing the placebo salt content in the crossover study was to maintain the blind.
Study participants began their first night of smoking abstinence at 20:00 prior to reporting to the inpatient unit of University of New Mexico Clinical and Translational Science Center at 11:30 the following day. During Day 1 at the hospital, participants provided a CO sample, which had to be 50% of their measurement at screening or less than 7 ppm and a negative breath alcohol test (0.00%). Additional criteria for session continuation included negative urine drug test and vitals within normal limits as described in the “Participants” section above. The study nurse evaluated the nares for abnormalities and checked POC glucose to ensure subjects were within normal limits prior to receiving spray.
During Day 1, participants were administered spray at 12:40, ate lunch at 13:00 and completed appetite ratings and a snacking test. Participants ate dinner at 19:00 and lights were turned off at 21:00.
The following morning, participants completed Questionnaire of Smoking Urges at 7:50. Prior to this first questionnaire administration, participants provided a urine sample, which had to be negative for illicit substances, and a CO sample, which had to be either 50% lower than the value on day 1, or less than 7 ppm. An intravenous line was established at 6:45 and a baseline blood sample was drawn. Study nurse checked POC glucose and completed a nares evaluation to confirm participant was within normal limits to receive spray. Spray administration occurred at 8:00, followed by breakfast at 8:20. Post-spray Questionnaire of Smoking Urges was completed at 8:15, 8:45, 9:15, 9:45, 10:30 and 11:30. During this time blood samples were taken for additional analyses. At noon, study nurse evaluated the nares to rule out abnormality and checked POC glucose to ensure that results were within normal limits. The two sessions were separated by one week.
Urges to smoke were rated using the 10-item Questionnaire on Smoking Urges-Brief (Cox et al., 2001. Nicotine Tob Res 3(1):7-16) that consists of 10-questions. The answers are scored from 1 (strongly disagree) to 7 (strongly agree). These questions are the bases for the two factor derived subscales. Factor 1 subscale reflects a strong desire and intention to smoke with smoking perceived as rewarding. Factor 2 subscale reflects an anticipation of relief from negative affect with an urgent desire to smoke. These two subscales were sub-analyses stemming from our main (overall) QSU-Brief analysis. Cravings were measured at −15, 0, +20, +60, +70, +80, +90 and +120 minutes from spray administration on Day 2.
Placebo contained 8.7% NaCl. Per FDA approved protocol, the product was prepared in a biosafety cabinet of UNM Translational Radiopharmacy. Drug Preparation occurred 30 minutes before administration. […] or placebo was placed in a 10 mL amber glass bottle (Gerresheimer AG, Düsseldorf, Germany), which was capped with a 10 mg sterile nasal pump (Aero Pump GmbH, Hochheim, Germany). Assembled product was primed per manufacturer's recommendations before 0.6 ml volume was administered to study participants. In a randomized fashion, study nurse administered one spray in each nostril every three minutes for the total of six sprays of either insulin or placebo. As each spray delivers 0.1 ml of fluid, and the concentration of insulin in Novolin R is 100 IU/mL, administering six sprays delivers 60 IU of insulin.
Random coefficient models were constructed for analyzing study outcomes. Treatment, time, treatment by time interaction, and sequence were included as fixed effects. Time nested within subjects, and time nested within treatment nested within subjects were included as random effects. […]

intranasal insulin: bulk human Regular insulin (U100 Novolin R, Novo Nordisk US), 100 IU/ml, six nasal sprays delivering 60 IU
Smoking urges (Questionnaire of Smoking Urges) compared to placebo, replication study (60 IU intranasal, crossover, morning of Day 2, 36 hours abstinence, p≤0.05): decreased significantly; also recorded: This finding was replicated | QSU-Brief Factor 2 compared to placebo, replication study (60 IU, crossover, Day 2, p=0.18): no effect; also recorded: not Factor 2 scale | QSU-Brief Factor 1 compared to placebo, replication study (60 IU, crossover, Day 2, p≤0.05): significantly decreased; also recorded: the effect was driven by intranasal insulin's effect on Factor 1 | QSU-Brief Factor 2, effect of treatment, b, replication study (SE(b)=0.87, z=1.34, p=0.18): 1.16 | QSU-Brief Factor 1, effect of treatment, b, replication study (SE(b)=1.15, z=2.16, p≤0.05): 2.49 | Smoking urges, effect of treatment, b, replication study (SE(b)=1.91, z=1.92, p≤0.05): 3.67
